Test results as given in US8980226B2, “Aerosolized fosfomycin/aminoglycoside combination for the treatment of bacterial respiratory infections” (Gilead Sciences, Inc., priority 2004, dated 2015).

Experiments:
E. coli ATCC 25922 = experiment: Animal efficacy, rat lung infection, aerosol administration; assay type: in vivo; conditions: aerosol administration of a 40 mg/mL solution of tobramycin alone (FIG. 18)
Description: The in vivo efficacy of aerosolized fosfomycin alone, tobramycin alone and combinations of fosfomycin plus tobramycin were evaluated against E. coli ATCC 25922 and P. aeruginosa ATCC 27853 in rat lungs. The bacterial inoculum used to establish the rat lung infections consisted of a mixture of bacteria and agarose beads. E. coli ATCC 25922 or P. aeruginosa ATCC 27853 was streaked onto blood agar plates and incubated for 18-24 hours at 35° C. Two to three colonies were inoculated into 10 mL Tryptic Soy Broth (hereafter referred to as TSB) and incubated statically at 35° C. for 1.5 to 2 hours. The culture was adjusted to an optical density of 0.1 (625 nm) in fresh TSB and then diluted 1:5 in TSB. One milliliter of bacterial suspension (approximately 10^7 CFU/mL) was added to 10 mL of a 2% noble agar solution and briefly mixed by inversion. The mixture was added to 150 mL of heavy white mineral oil equilibrated to 55° C. and stirred on ice for 5 minutes. The cooled suspension was poured into a 250 mL centrifuge tube and centrifuged at 3,000 rpm, 4° C., for 10 minutes. The supernatant was decanted off, the pellet resuspended in 25 mL of normal sterile saline, and transferred to a 50 mL conical centrifuge tube. […]
Bacterial killing was evaluated 18 hours after the last exposure. […] The lungs were removed aseptically, excess tissue removed and the lung weight determined. […]

[1] = system: susceptible P. aeruginosa; conditions: typical values, literature; cited from earlier work
[2] = in vivo; cited from earlier work
[3] = cited from earlier work

In the case of `NC[C@H]1O[C@H](O[C@H]2[C@H](O)[C@@H](O[C@H]3O[C@H](CO)[C@@H](O)[C@H](N)[C@H]3O)[C@H](N)C[C@@H]2N)[C@H](N)C[C@@H]1O` [Tobramycin], the “killing of E. coli in the rat lung” value (E. coli ATCC 25922) is listed as 2 log 10, the “MICs of susceptible P. aeruginosa” value [1] is listed as “less than 2 μg/mL” and the prevalence of nephrotoxicity [2] is listed as 31-42%. The sputum levels ([3]; aerosol administration) was at least 1000 µg/mL, the oral absorption ([3]; in vivo, po) was “poorly absorbed orally” and the plasma half-life ([3]; parenteral administration) was 1 to 2 h.
